Where a name gives a salt, the structure may show the parent alone.
System: human Fab of κ-type
Test: STD-NMR binding test (saturation transfer difference NMR screening)
Set-up: key to NMR signal, conc 1 / NMR signal, conc 2 / NMR signal, conc 3 / NMR signal, Conc 1 (directed library) / NMR signal, Conc 2 (directed library): 0 no; 1 weak; 2 strong signal
Details: for NMR signal, Conc 2 (directed library): 100 nM antibody; for NMR signal, Conc 1 (directed library): 500 nM antibody; for NMR signal, conc 1: 500 nM protein; for NMR signal, conc 1 / NMR signal, conc 2: 0.5 mM ligand; for NMR signal, conc 2: 100 nM protein; for interaction with the antibody in NMR screening of directed library: two higher antibody concentrations
Description: All NMR experiments were performed at 298 K on a Bruker Avance 500 MHz spectrometer. The 1D saturation transfer difference method (STD-NMR) was used as screening assay (Mayer M. and Meyer B. 1999. Characterisation of Ligand Binding by Saturation Transfer Difference NMR Spectroscopy. Angew. Chem., Int. Ed. 38: 1784-1788). […] The two spectra are recorded in the same experiment in an interleaved fashion. […] It has been shown that the method is capable of detecting ligands with dissociation constants between 10^−3 and 10^−8 M (Mayer M. and Meyer B. 1999. Characterisation of Ligand Binding by Saturation Transfer Difference NMR Spectroscopy. Angew. Chem, Int. Ed. 38: 1784-1788). The strength of the STD-NMR signal depends upon several factors including protein size, offset and duration of the on-resonance irradiation, the dissociation rate constant and the excess of ligand. The STD-NMR method is advantageous in that the detection limits can be tuned for binding by varying the protein concentration while keeping the ligand concentration constant. Under such conditions, at higher protein concentrations the weak to medium binders are detected, whereas at lower protein concentrations only medium binders are detected. For instance, it has been shown before for another enzyme system that both μM and mM binders were detected at a protein concentration of 35 μM whereas only μM binders were detected at protein concentrations of 1 μM and 100 nM (Peng J. W., Lepre C. A., Fejzo J., Abdul-Manan N. and Moore J. M. 2001, Nuclear Magnetic Resonance-Based Approaches for Lead Generation in Drug Discovery, Methods in Enzymology. 338: 202-230). It should be noted that the signal intensity at one specific protein concentration should not be taken as a direct measure of the binding strength. […] On the other hand the signal of the μM binder became even stronger than before (Peng J. W., Lepre C. A., Fejzo J., Abdul-Manan N. and Moore J. M. 2001, Nuclear Magnetic Resonance-Based Approaches for Lead Generation in Drug Discovery, Methods in Enzymology. 338: 202-230).
Here, three different antibody concentrations were used, namely, 0.5 μM, 100 nM and 20 nM. The antibody used was a human Fab of κ-type. In all cases ligands were tested one-by-one. On-resonance irradiation was set at 0 ppm and off-resonance irradiation was set at 40 ppm. Irradiation time in each scan was 2 s and 16K data points were collected with 1024 scans in total. Compounds for testing were dissolved in DMSOd6 to a concentration of 50 mM and 5 μL of the concentrated ligand solution was added to 495 μL buffer solution. The samples thus consisted of 0.5 mM ligand, 20 mM phosphate buffer, 100 mM NaCl and […] in D2O at pD 7.5, uncorrected reading on pH-meter. Compounds were initially tested for binding with 0.5 μM antibody. Interesting ligands were further tested with protein concentrations of 100 or 20 nM. A one-dimensional ^1H-spectrum was acquired first as reference spectrum and subsequently a saturation transfer difference (STD) spectrum was acquired. Each analysis took 60 minutes on the spectrometer.

| SMILES | NMR signal, conc 1 | NMR signal, conc 2 | also measured |
| --- | --- | --- | --- |
| COC(=O)[C@H]1CCCN1C(=O)N(C)c1ccc(Cl)c(Cl)c1 (single isomer, unassigned) [AB_0003290, 1-[(3,4-Dichloro-phenyl)-methyl-carbamoyl]-pyrrolidine-2-carboxylic acid methyl ester (R-isomer)] |  |  | NMR signal, Conc 2 (directed library): 2; NMR signal, Conc 1 (directed library): 2 |
| CC1=NN(c2cccc(Cl)c2)C(=O)C1 [AB_0000530, 1-(3-chlorophenyl)-3-methyl-2-pyrazolin-5-one] | 0 |  |  |
| O=C1C(=O)N(c2ccccc2)C(=O)N1c1ccccc1 [AB_0000540, 1,3-diphenylparabanic acid] | 0 |  |  |
| O=C(Cc1ncon1)Nc1ccc(F)cc1F [AB_0000690, n1-(2,4-difluorophenyl)-2-(1,2,4-oxadiazol-3-yl)acetamide] | 0 |  |  |
| c1ccc(-c2nnc(-c3ccccn3)nn2)nc1 [AB_0000700, 3,6-di-2-pyridyl-1,2,4,5-tetrazine] | 0 |  |  |
| O=C1C(=Cc2ccccc2)C(=O)c2ccccc21 [AB_0000730, 2-benzylidene-1,3-indandione] | 0 |  |  |
| Sc1nnc(-c2csc(-c3ccccc3)n2)o1 [AB_0000760, 5-(2-phenyl-1,3-thiazol-4-yl)-1,3,4-oxadiazol-2-ylhydrosulfide] | 1 | 0 |  |
| O=C(c1ccc2ccccc2c1)n1ccnc1 [AB_0000900, 1-(2-naphthoyl)imidazole] | 0 |  |  |
| Fc1cc(F)cc(Cc2nc(-c3cccs3)no2)c1 [AB_0001020, 5-(3,5-difluorobenzyl)-3-(2-thienyl)-1,2,4-oxadiazole] | 1 | 0 |  |
| CCn1ccnc1CC1COc2ccccc2O1 (stereo not shown) [AB_0001070, imiloxan hydrochloride] | 1 | 1 |  |
| CCOC(=O)c1c[nH]c2ccccc2c1=O [AB_0001100, ethyl 4-oxo-1,4-dihydroquinoline-3-carboxylate] | 0 |  |  |
| OC(CNCc1ccc(Cl)cc1Cl)C(F)(F)F (stereo not shown) [AB_0001170, 3-[(2,4-dichlorobenzyl)amino]-1,1,1-trifluoro-2-propanol] | 0 |  |  |
| c1ccc(CCn2cc(-c3ccncc3)cn2)cc1 [AB_0001190, 4-[1-(2-phenylethyl)-(1h)-pyrazol-4-yl]pyridine] | 2 | 0 |  |
| COC(=O)c1ccc2ccccc2c1O [AB_0001200, methyl 1-hydroxy-2-naphthoate] | 1 | 0 |  |
| O=C(COc1ccc2ccccc2c1)ON1C(=O)CCC1=O [AB_0001230, (2-naphthoxy)acetic acid, n-hydroxysuccinimide ester] | 0 |  |  |
| COC(=O)CCCN(C)C(=O)N(C)c1ccccc1 [AB_0001251, 4-(1,3-Dimethyl-3-phenyl-ureido)-butyric acid methyl ester] |  |  | NMR signal, Conc 2 (directed library): 0; NMR signal, Conc 1 (directed library): 0; interaction with the antibody in NMR screening of directed library: negative result |
| COC(=O)CCCN(C)C(=O)N(C)c1ccc(OC)c(F)c1 [AB_0001252, 4-[3-(3-Fluoro-4-methoxy-phenyl)-1,3-dimethyl-ureido]-butyric acid methyl ester] |  |  | NMR signal, Conc 2 (directed library): 1; NMR signal, Conc 1 (directed library): 1 |
| COC(=O)CCCN(C)C(=O)N(C)c1ccc(OC)c(Cl)c1 [AB_0001253, 4-[3-(3-Chloro-4-methoxy-phenyl)-1,3-dimethyl-ureido]-butyric acid methyl ester] |  |  | NMR signal, Conc 2 (directed library): 1; NMR signal, Conc 1 (directed library): 2 |
| COC(=O)CCCN(C)C(=O)N(C)c1ccc(Cl)c(Cl)c1 [AB_0001255, 4-[3-(3,4-Dichloro-phenyl)-1,3-dimethyl-ureido]-butyric acid methyl ester] |  |  | NMR signal, Conc 2 (directed library): 2; NMR signal, Conc 1 (directed library): 2; interaction with the antibody in NMR screening of directed library: strongest binding |
| COC(=O)CCCNC(=O)N(C)c1ccc(Cl)c(Cl)c1 [AB_0001257, 4-[3-(3,4-Dichloro-phenyl)-3-methyl-ureido]-butyric acid methyl ester] |  |  | NMR signal, Conc 2 (directed library): 0; NMR signal, Conc 1 (directed library): 2 |

Now from value to molecule, other results behind:

| NMR signal, conc 1 | NMR signal, conc 2 | SMILES | also measured |
| --- | --- | --- | --- |
| 0 |  | O=C(c1ccccn1)C(O)c1ccccn1 (stereo not drawn) [AB_0000510, alpha-pyridoin] |  |
| 1 | 0 | Cc1cc(C)nc(SCC(=O)Nc2ccc(F)c(Cl)c2)n1 [AB_0000580, n1-(3-chloro-4-fluorophenyl)-2-[(4,6-dimethylpyrimidin-2-yl)thio]acetamide] |  |
| 0 |  | O=C1c2ccncc2C(=O)N1c1ccc(Cl)cc1 [AB_0000610, 2-(4-chlorophenyl)-2,3-dihydro-1h-pyrrolo[3,4-c]pyridine-1,3-dione] |  |
| 0 |  | O=C(Cc1ncon1)Nc1ccc(F)c(F)c1F [AB_0000630, n1-(2,3,4-trifluorophenyl)-2-(1,2,4-oxadiazol-3-yl)acetamide] |  |
| 2 | 0 | COC(=O)NC(=O)c1nc(-c2ccccc2)c(C)o1 [AB_0000670, methyl n-[(5-methyl-4-phenyl-1,3-oxazol-2-yl)carbonyl]carbamate] |  |
| 0 |  | O=C(Nc1ccc(F)cc1)Oc1noc(-c2ccccc2)n1 [AB_0000740, 5-phenyl-1,2,4-oxadiazol-3-yl n-(4-fluorophenyl)carbamate] |  |
| 0 |  | CC1(C)CC(=O)c2sc(NC(=O)c3cccnc3)nc2C1 [AB_0000750, n-(5,5-dimethyl-7-oxo-4,5,6,7-tetrahydro-benzothiazol-2-yl)-nicotinamide] |  |
| 0 |  | O=C(CC1OC(=O)c2ccccc21)c1ccccn1 (stereo not shown) [AB_0000790, 3-[2-oxo-2-(2-pyridyl)ethyl]-1,3-dihydroisobenzofuran-1-one] |  |
| 0 |  | O=C1SC(Br)C(=O)N1c1ccccc1 (stereo not shown) [AB_0000880, 5-bromo-3-phenyl-thiazolidine-2,4-dione] |  |
| 0 |  | O=C1C=C(Cl)C(=O)N1c1ccccc1 [AB_0000930, 3-chloro-1-phenyl-pyrrole-2,5-dione] |  |
| 0 |  | CCCCc1c(O)nc2ccccn2c1=O [AB_0000990, 3-butyl-2-hydroxy-4h-pyrido[1,2-a]pyrimidin-4-one] |  |
| 1 | 0 | OC(CNCc1ccccc1)C(F)(F)F (stereo not shown) [AB_0001000, 3-(benzylamino)-1,1,1-trifluoro-2-propanol] |  |
| 1 | 0 | O=Cc1cccc(C(F)(F)F)c1Cl [AB_0001030, 2-chloro-3-(trifluoromethyl)benzaldehyde] |  |
| 2 | 0 | N=c1sccn1CC(=O)c1ccc2ccccc2c1 [AB_0001060, 2-(2-imino-thiazol-3-yl)-1-naphthalen-2-yl-ethanone] |  |
| 0 |  | CC1CN=C(SCc2ccccc2)N1.Cl (stereo not shown) [AB_0001080, 2-(benzylthio)-5-methyl-4,5-dihydro-1h-imidazol-3-ium chloride] |  |
| 1 | 0 | O=C1C=CC(=O)N1c1cccc(Cl)c1 [AB_0001090, n-(3-chlorophenyl)-maleimide] |  |
| 0 |  | CSCCNC(=O)c1nc2ccccc2c(=O)n1N [AB_0001130, 3-amino-n-[2-(methylthio)ethyl]-4-oxo-3,4-dihydroquinazoline-2-carboxamide] |  |
| 2 | 0 | Clc1ccc(COn2ccnc2)cc1Cl [AB_0001150, 1-[(3,4-dichlorobenzyl)oxy]-1h-imidazole] |  |
| 0 |  | O=C(O)c1ccnn(-c2ccccc2)c1=O [AB_0001180, 3-oxo-2-phenyl-2,3-dihydro-4-pyridazinecarboxylic acid] |  |
| 2 | 0 | FC(F)(F)c1cccc(-n2ccnc2)c1 [AB_0001220, 1-(3-trifluoromethylphenyl)imidazole] |  |

From patent US7645903B2, “Use of urea variants as affinity ligands” (GE Healthcare Bio-Sciences AB, priority 2002, dated 2010)
